Like-named read-outs stand apart in the source and are kept apart here.
Assays:
[1] = Adverse reactions in pharmacokinetic study; type: in vivo, mouse; conditions: 24-hour sampling period, IV 3 mg/kg and IP 10 mg/kg
Method: (§1) The pharmacokinetics of compound 22 was studied in non-fasted male C57BL/6 mice weighing 21.1-26.5 g. Mice had access to food and water ad libitum throughout the pre- and post-dose sampling period.
(§2) Compound 22 was dosed to mice by bolus injection into the lateral tail vein (2 mL/kg) for IV administration and by injection into the IP cavity (5 mL/kg) for IP administration. After dosing, blood samples were collected up to 24 h (n=3 mice per time point) with a maximum of three samples from each mouse via submandibular bleed (approximately 120 μL). No urine samples were collected as mice were housed in bedded cages. Blood was collected into polypropylene Eppendorf tubes containing heparin as anticoagulant. Once collected, blood samples were centrifuged immediately, supernatant plasma was removed, and stored at −80 °C until analysis by liquid chromatography-mass spectrometry (LC-MS). A summary of the bioanalytical method is included in Table 5.

primary neurons [2] = assay: Neuronal cell death in the presence of NMDA; type: cell-based, mouse; conditions: 1 or 10 μM compound, 100 μM NMDA
Method: (§3) Primary neurons were treated with 0.4, 1, 2, 10 or 50 μM of compound 2 or compound 22 (prepared according to Example 2). NSP5 was added to primary neurons at DIV11, and compound 2 or 22 was added 48 hours later. Cells were treated with propidium iodide 48 hours after compound addition. Cells were washed with PBS and fixed with 4% PFA. Cells were then washed and stained with DAPI. Images of cells were taken with ZEISS Axioscan 7 microscope slide scanner. Cell death was determined by Image J analysis, counting the death cell (red, PI)) vs all cells (blue, DAPI).
(§4) One hour after compound addition (1 or 10 μM of compound 2 or compound 22) neurons were treated with a cytotoxic agent (100 μM N-methyl-D-aspartate (NMDA), 100 μM H2O2 or 5 μM staurosporine). One hour after treatment with the cytotoxic agent, the media was replaced with fresh media and the neurons were incubated for 24 hours. A final concentration of 1 μM propidium iodide (PI) was added into the well and incubated for 5 mins. Cells were washed with phosphate-buffered saline (PBS) and then fixed with 4% PFA. Cells were then washed and stained with DAPI, and cell death determined as described above.

primary neurons [3] = assay: Neuronal cell death in the presence of H2O2; type: cell-based, mouse; conditions: 1 or 10 μM compound, 100 μM H2O2
Method: as §3, §4

[4] = Mouse pharmacokinetics, IV administration; type: in vivo
Method: Pharmacokinetic parameters of compound 22 (prepared in accordance with Example 2) were determined following intravenous (IV, 3 mg/kg) and intraperitoneal (IP, 10 mg/kg) administration to male C57BL/6 mice.
IV and IP formulations were prepared separately by dissolving solid compound 22 in dimethyl sulfoxide (DMSO) prior to addition of 50 mM phosphate buffered saline (pH 6.5) using vortexing and sonication to produce a colourless solution, and giving a final DMSO concentration of 5% (v/v) for each formulation. The IV formulation was filtered through a 0.22 μm syringe filter prior to dosing, whereas the IP formulation was not filtered.
as §1, §2
Concentrations of test compound in plasma and tissue samples were determined using a liquid chromatography with tandem mass spectrometry (LCMS/MS) method validated for linearity, accuracy, precision, matrix factor and recovery (refer to Table 5).
Plasma: The plasma calibration curve was prepared by spiking aliquots of blank mouse plasma (25 μL) with test compound standard solutions (5 μL) and internal standard solution (5 μL of diazepam, 5 μg/mL in 50% acetonitrile in water). Test plasma samples (25 μL) were thawed, mixed and then spiked with internal standard solution (5 μL). Plasma protein precipitation was performed by addition of acetonitrile (3-fold volume ratio) and thorough vortex mixing. Samples were centrifuged (RCF=9391×g) for 3 minutes and the supernatant (100 μL) was collected for analysis. The analysis of blood/plasma (B/P) partitioning samples was conducted similarly as for the plasma samples, using protein precipitation with acetonitrile as described above.
The plasma concentration versus time profile was defined by the average plasma concentration at each sample time, and PK parameters were calculated using non-compartmental methods (PKSolver Version 2.0). Standard calculations for each pharmacokinetic parameter are listed below.

[5] = test system: PHP.B hSyn-NSP5-V5 adeno-associated virus; assay: Rota-rod motor testing; type: in vivo, mouse; conditions: 10 mg/kg daily, three-day testing, 15-17 days post AAV, vs Paxlovid
Method: (§5) In vivo testing was performed on 5-month-old female C57BL/6 wildtype mice injected intravenously with PHP.B hSyn-NSP5-V5 adeno-associated virus (AAV) and treated daily with compound 22 (10 mg/kg), Paxlovid (nirmatrelvir/ritonavir) (10 mg/kg nirmatrelvir: 3.33 mg/kg ritonavir) or a vehicle control (n=10 per group).
(§6) Motor testing was performed on the Rota-rod five times daily over a three-day testing period as previously described (refer to Ke et al. (2015) Acta Neuropathol, 130: 661-678). Motor coordination was also assessed using the hanging wire test at 14 and 22 days post injection with the AAV, which assessed the time hanging upside down on a wire grid (refer to Chan et al. (2020) Am J Path, 190(8): 1713-1722). Anxiety, disinhibition and exploratory behaviour was assessed using the elevated plus maze (EPM) test as previously described (refer to Ke et al. (2015) Acta Neuropathol, 130: 661-678).

[6] = test system: PHP.B hSyn-NSP5-V5 adeno-associated virus; assay: Hanging wire test; type: in vivo, mouse; conditions: 10 mg/kg daily, vs Paxlovid and vehicle
Method: as §5, §6

primary neurons [7] = assay: Neuronal cell death in the presence of staurosporine; type: cell-based, mouse; conditions: 1 or 10 μM compound, 5 μM staurosporine
Method: as §3, §4

NC(=O)C1CCN(c2ncccc2CNCc2cccc3[nH]ccc23)CC1 [Compound 22]
Adverse reactions or compound-related side effects [1]: no adverse reactions or compound-related side effects observed
Protection from NMDA-induced neurotoxicity (primary neurons [2]): did not protect
Protection from H2O2-induced neurotoxicity (primary neurons [3]): did not protect
Apparent blood volume of distribution ([4]; IV 3 mg/kg): high
Blood clearance ([4]; IV 3 mg/kg): moderate
Duration of measurable plasma concentrations ([4]; IV 3 mg/kg): 24 h
In vivo blood clearance relative to nominal hepatic blood flow ([4]; IV 3 mg/kg, mouse): ~ 50%
In vivo hepatic extraction ratio ([4]; IV 3 mg/kg, assuming predominantly hepatic clearance): moderate
clearance ([4]; mouse, blood, IV 3 mg/kg, extrapolation to infinity, approximation only, read-out: Blood CL): 60.6 mL/min/kg
Vd ([4]; mouse, blood, IV 3 mg/kg, extrapolation to infinity, approximation only, read-out: Blood VSS): 16.6 L/kg
half-life ([4]; mouse, plasma, iv, 3 mg/kg, male C57BL/6 mice, terminal phase not clearly defined, approximation only, read-out: Apparent t1/2 (converted)): ~14 h
AUC(0-t) ([4]; mouse, plasma, IV 3 mg/kg, male C57BL/6 mice, read-out: Plasma AUC0-last): 1.51 µM·h
AUC(0-inf) ([4]; mouse, plasma, IV 3 mg/kg, extrapolation to infinity, approximation only, read-out: Plasma AUC0-inf): 1.62 µM·h
clearance ([4]; mouse, plasma, IV 3 mg/kg, extrapolation to infinity, approximation only, read-out: Plasma CL): 84.9 mL/min/kg
Vd ([4]; mouse, plasma, IV 3 mg/kg, extrapolation to infinity, approximation only, read-out: Plasma VSS): 23.3 L/kg
Rota-rod average time of five daily trials [5]: performed significantly better than Paxlovid-treated mice
Rota-rod maximum time of five daily trials [5]: performed significantly better than Paxlovid-treated mice
Hanging wire test, mice reaching maximum time ([6]; 14 days post AAV): more compound 22-treated mice reaching the maximum time
Hanging wire test, mice reaching maximum time ([6]; 22 days post AAV): more compound 22-treated mice reaching the maximum time
Protection from staurosporine-induced neurotoxicity (primary neurons [7]): did not protect

— patent publication US20260355171A1, “INHIBITORS AND USES THEREFOR” (priority 2022, published 2026)
